Results as given in PMC5838106, “Cathelicidin promotes inflammation by enabling binding of self-RNA to cell surface scavenger receptors” (Scientific Reports, 2018).
Where no end group is shown, it is not given here.

Experiments:
SR-B1 = molecular target: T1, SR-B1 (Homo sapiens, UniProt Q8WTV0); test: Immunofluorescence localisation of U1 RNA with SR-B1; assay type: cell-based; conditions: NHEKs, 4 °C, 10 minutes with U1 RNA and peptide
T1 construct: endogenous in cells; host or cells: NHEK (primary neonatal human epidermal keratinocytes)
T1 sequence (Q8WTV0 1-509 isoform Q8WTV0-2): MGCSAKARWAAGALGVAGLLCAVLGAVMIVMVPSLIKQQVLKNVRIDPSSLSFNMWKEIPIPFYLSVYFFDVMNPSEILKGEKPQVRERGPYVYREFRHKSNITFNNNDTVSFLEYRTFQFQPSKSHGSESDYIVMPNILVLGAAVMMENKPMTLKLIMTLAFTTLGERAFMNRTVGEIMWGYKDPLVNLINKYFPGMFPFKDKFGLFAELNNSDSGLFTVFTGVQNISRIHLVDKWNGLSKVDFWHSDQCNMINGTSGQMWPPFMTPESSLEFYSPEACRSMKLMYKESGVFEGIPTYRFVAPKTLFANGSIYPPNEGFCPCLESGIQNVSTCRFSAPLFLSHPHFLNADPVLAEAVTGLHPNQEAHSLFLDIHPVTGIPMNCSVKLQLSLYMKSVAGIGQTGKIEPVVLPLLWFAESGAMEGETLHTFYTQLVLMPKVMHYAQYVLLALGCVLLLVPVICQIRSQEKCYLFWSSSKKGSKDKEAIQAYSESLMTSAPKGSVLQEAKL
Experimental: NHEKs were grown on 8-well chamber slides (Thermofisher Scientific). After indicated treatments, cells were fixed in 4% paraformaldehyde (PFA) (Thermofisher Scientific) for 10 minutes and blocked with 3% bovine serum albumin, 0.2 M Glycine (Sigma) with or without 1 mg/mL saponin (Sigma) prior to incubating with primary antibodies followed by appropriate 488- or 568-coupled secondary antibodies, or 488-streptavidin conjugate. Nuclei were counterstained with DAPI. All images were taken with an Olympus BX41 microscope (widefield), Zeiss LSM510 confocal microscope, or Nikon A1R Confocal STORM microscope as indicated.
Figure S3. a) NHEKs cultured at 4 °C for 10 minutes with U1 RNA and cathelicidin peptide. […]
RNA. NHEKs were cultured with various cathelicidin peptides (2.5 µM) for 10 minutes, then with biotinylated U1 RNA (2.5 µg/mL) at 4 °C for 1 hour before physical proximity of SR-A6 and U1 RNA was determined using a fluorescence-based PLA that produces a red fluorescent signal. […] PMA-treated THP1 were cultured with various cathelicidin peptides (3 µM) for 10 minutes, then with biotinylated U1 RNA (2.5 µg/mL) at 4 °C for 1 hour before physical proximity of U1 RNA and scavenger receptors was determined using a fluorescence-based PLA, each count is PLA complexes observed in 5 visual fields. f) NHEKs cultured at 37 °C that were stained immediately after or after 5 […]

[1] = system: Group A streptococcus (GAS); assay type: cell-based
Experimental: Figure 1 Inflammatory activity of cathelicidin can be dissociated from antimicrobial function (a) Transcriptomic analysis by RNASeq of primary cultures of normal human epidermal keratinocytes (NHEKs) treated with LL37 (2.5 μM) with or without U1 RNA (2.5 μg/mL) for 24 hours. Shown are gene sets induced > 2 fold over vehicle, and after treatment with LL37, U1 RNA, or the combination of LL37 + U1 RNA. (b) Gene Ontology analysis of gene sets from (a). The number of genes related to each biological process is indicated in parentheses. (c) Amino acid sequence of synthetic cathelicidin peptides used in this study. (d) Antimicrobial assay of cathelicidin peptides against group A streptococcus (GAS). GAS were incubated with various concentrations of each peptide (0–25 μM) for 6 hours, then surviving colonies counted after plating on Todd Hewitt Broth gel. (e) IFN-β1 mRNA abundance and (f) IL-6 mRNA abundance in NHEKs after treatment with cathelicidin peptides (2.5 μM) for 10 minutes, then stimulated with U1 RNA (2.5 μg/mL) for a further 6 hours. (n = 3). (g) IFN-β1 mRNA abundance and (h) IL-6 mRNA abundance in […] (PMA)-treated THP1 cells after treatment with cathelicidin peptides (3 μM) for 10 minutes, then stimulated with U1 RNA (12.5 μg/mL) overnight. (n = 3). Data presented are from one representative experiment of at least two independent experiments. […]

LL37
U1 RNA localization with SR-B1 (SR-B1): enabled U1 RNA to localize with SR-B1

LLGDFFRKSKEKIGKEFKRIVQRIKDFLRNLVPR [LL34]
minimal bacteriocidal concentration (MBC) ([1]; 6 h): ca. 5 uM
antimicrobial activity against group A Streptococcus (GAS) ([1]; GAS incubated with peptide 0–25 μM for 6 hours, surviving colonies counted, Fig. 1d): increased antimicrobial activity compared to LL37
U1 RNA localization with SR-B1 (SR-B1): enabled U1 RNA to localize with SR-B1
